This note sets out measurements from US20090238852A1, “METHODS FOR CONTROLLING INTRACELLULAR CALCIUM LEVELS ASSOCIATED WITH AN ISCHEMIC EVENT” (University of Utah Research Foundation, priority 2008, published 2009).

For the test, the system named is rabbit ventricular myocytes. As to the kind of experiment: [Ca^++]i during paced aerobic metabolism (PH) with the Na^+ channel opener ATX. Type of test: cell-based. To be noted: n = 7. Here is the method:
In these studies, intracellular calcium concentration [Ca^++]i was measured by flow cytometry. Measurement of isolated mouse and rabbit ventricular myocyte [Ca^2+]i and [Na^+]i by flow cytometry has been described (Zhang et al., J. Cardiovasc. Pharmacol. 51: 443-449 (2008); Li et al., J. Mol. Cell. Cardiol. 33: 2145-2155 (2001)). [Ca^++]i was measured with the Ca^++ sensitive fluorescent probe, Fluo 3-AM (Molecular Probes, Eugene, Oreg.), using a FACScan (Becton-Dickinson, MA). The cells were exposed to 4 μmol/L Fluo-3 AM for 30 min at 37° C. The cells were then separated into aliquots. After 40 min of wash, the cells were exposed to paced metabolic ischemia (MI) for 45 min at 37° C. Metabolic ischemia was accomplished by incubating cells in a glucose-free MKRBB solution (pH 7.40) containing 2 mmol/L sodium cyanide (NaCN) to impair mitochondrial and glycolytic generation of ATP. To reproduce the situation in the beating ischemic heart, during the period of metabolic ischemia, myocytes were placed in a 5-well chamber with equal volumes of myocyte suspensions from the same heart dissociation placed in each well. The chamber was water bathed to maintain temperature at 37° C. and bubbled with 5% CO2 in air to keep myocytes in suspension. […] Approximately 2×10^3 myocytes were analyzed to calculate average emission fluorescence intensity in each sample. […] Only those cells with low fluorescence intensity at 670 nm (PI-negative cells or viable cells) were included in the comparative analysis of [Ca^++]i. The sample [Ca^2+]i values were calculated by Mn^2+ quenching (Sugishita et al, 2001) and [Na^+]i values by comparison with a standard curve of varied [Na^+]i versus Na Green fluorescence. […] Results were expressed as means±SEM. […]
To further examine the role of ODSH as a Na^+ inhibitor, additional experiments were performed in which the Na^+ channel opener amenone toxin II (ATX) was added to medium in a final concentration of 20 nmol/L to open the cardiac myocyte membrane Na^+ channel. […] Intracellular calcium concentration [Ca^++]i was monitored as earlier. […]

2-O, 3-O desulfated heparin [ODSH]: the “[Ca^++]i” value runs as follows: (PH + ODSH 100 μg/mL + ATX 20 nmol/L, PH + ATX 529.1 ± 29.3) 412.9 ± 26.7^+ nM; (PH + ODSH 100 μg/mL, no ATX, PH alone 406.8 ± 15.9) 366.4 ± 21.1 nM.
